In patent publication US8017786B2, “Substituted β-phenyl-α-hydroxy-propanoic acid, synthesis method and use thereof” (Northwest University, priority 2006, dated 2011):

System: anesthetized rats
Experiment: Blood pressure and left ventricular function of anesthetized rats
Assay type: in vivo, rat
Design: contractive pressure, change ratio: unit not given here
Description: All data were input into PowerLab/8Sp data acquisition and processing system via RM-6000 multi-channel polygraph, and recorded, analyzed and processed by PowerLab/8Sp.
The abdomen was opened 1.5 cm below xiphoid bone to isolate duodenum, a small incision was formed on the duodenum away from blood vessels by ophthalmic scissors, a catheter was inserted and the incision was fixed by suture for administration. After the end of operation and a further waiting period of 30 min, normal data were recorded once the indexes to be monitored were stable.
Test drugs were duodenally administered via the catheter, and the indexes were monitored 5, 15, 30, 60, 90 and 120 min after the administration. The change ratios of the indexes were calculated in accordance with the following formula, and were used for statistic analysis among groups.

[1] = 4.5 mg/kg duodenal, 5 min after administration
[2] = 4.5 mg/kg duodenal, 15 min after administration
[3] = 4.5 mg/kg duodenal, 30 min after administration
[4] = 4.5 mg/kg duodenal, 60 min after administration
[5] = 4.5 mg/kg duodenal, 90 min after administration
[6] = 4.5 mg/kg duodenal, 120 min after administration
[7] = 4.5 mg/kg duodenal, before administration
[8] = 9 mg/kg duodenal, 5 min after administration
[9] = 9 mg/kg duodenal, 15 min after administration
[10] = 9 mg/kg duodenal, 30 min after administration
[11] = 9 mg/kg duodenal, 60 min after administration

`CC1(C)C2CCC1(C)C(OC(=O)C(O)Cc1ccc(O)c(O)c1)C2` (stereo not drawn) [bornyl salvianate ester, bornyl β-(3,4-dihydroxylphenyl)-α-hydroxylpropionate ester] was tested, and the “mean arterial pressure, systolic pressure and diastolic pressure (in words)” value (4.5 mg/kg) was “exhibited no significant change”, the “change-rate of left intraventricular pressure MAX” value [1] was 5429.3 ± 1279.7 mmHg/s and the “change-rate of left intraventricular pressure MAX, change ratio” value [1] was 0.4 ± 11.0. The “change-rate of left intraventricular pressure, -MAX” value [1] was −4152.9 ± 764.8 mm/Hg/s, the “change-rate of left intraventricular pressure, -MAX, change ratio” value (“change-rate … -MAX, change ratio” for short) [1] was −2.2 ± 8.2 and the contractive pressure [1] was 126.54 ± 25.94 mmHg. For the same compound, the “contractive pressure, change ratio” value [1] was −1.96 ± 11.16, the diastolic pressure [1] was 68.68 ± 15.82 mmHg and the “diastolic pressure, change ratio” value [1] was −0.08 ± 12.81. For the same compound, the heart rate [1] was 337.41 ± 47.67 beat/min, the “heart rate, change ratio” value [1] was 2.49 ± 7.18 and the left intraventricular pressure [1] was 128.67 ± 18.24 mmHg. The “left intraventricular pressure, change ratio” value [1] was 0.38 ± 6.72, the mean arterial pressure [1] was 87.97 ± 18.89 mmHg and the “mean arterial pressure, change ratio” value [1] was −1.01 ± 11.95. The “change-rate of left intraventricular pressure MAX” value [2] was 5435.9 ± 1216.6 mmHg/s, the “change-rate of left intraventricular pressure MAX, change ratio” value [2] was 0.9 ± 11.4 and the “change-rate of left intraventricular pressure, -MAX” value [2] was −4141.1 ± 755.6 mm/Hg/s. The “change-rate … -MAX, change ratio” value [2] was −2.4 ± 9.1, the contractive pressure [2] was 128.80 ± 24.39 mmHg and the “contractive pressure, change ratio” value [2] was −0.05 ± 10.13. The diastolic pressure [2] was 70.87 ± 15.08 mmHg, the “diastolic pressure, change ratio” value [2] was 3.38 ± 12.17 and the heart rate [2] was 347.56 ± 47.18 beat/min. The “heart rate, change ratio” value [2] was 5.67 ± 7.58, the left intraventricular pressure [2] was 130.13 ± 18.12 mmHg and the “left intraventricular pressure, change ratio” value [2] was 1.51 ± 6.25. The mean arterial pressure [2] was 90.18 ± 17.91 mmHg, the “mean arterial pressure, change ratio” value [2] was 1.66 ± 11.07 and the “change-rate of left intraventricular pressure MAX” value [3] was 5408.8 ± 1352.2 mmHg/s. The “change-rate of left intraventricular pressure MAX, change ratio” value [3] was 0.1 ± 13.5, the “change-rate of left intraventricular pressure, -MAX” value [3] was −4090.5 ± 704.6 mm/Hg/s and the “change-rate … -MAX, change ratio” value [3] was −3.6 ± 6.5. The contractive pressure [3] was 129.90 ± 23.86 mmHg, the “contractive pressure, change ratio” value [3] was 0.93 ± 11.47 and the diastolic pressure [3] was 71.78 ± 15.67 mmHg. For the same compound, the “diastolic pressure, change ratio” value [3] was 4.78 ± 14.39, the heart rate [3] was 348.91 ± 52.11 beat/min and the “heart rate, change ratio” value [3] was 5.97 ± 9.72. For the same compound, the left intraventricular pressure [3] was 129.67 ± 17.48 mmHg, the “left intraventricular pressure, change ratio” value [3] was 1.22 ± 7.07 and the mean arterial pressure [3] was 91.15 ± 17.95 mmHg. The “mean arterial pressure, change ratio” value [3] was 2.91 ± 12.81, the “change-rate of left intraventricular pressure MAX” value [4] was 5760.1 ± 1393.5 mmHg/s and the “change-rate of left intraventricular pressure MAX, change ratio” value [4] was 7.1 ± 18.3. For the same compound, the “change-rate of left intraventricular pressure, -MAX” value [4] was −4146.8 ± 820.5 mm/Hg/s, the “change-rate … -MAX, change ratio” value [4] was −2.4 ± 10.2 and the contractive pressure [4] was 135.97 ± 22.80 mmHg. The “contractive pressure, change ratio” value [4] was 5.64 ± 8.91, the diastolic pressure [4] was 76.78 ± 14.34 mmHg and the “diastolic pressure, change ratio” value [4] was 12.13 ± 9.39. The heart rate [4] was 365.43 ± 32.77 beat/min, the “heart rate, change ratio” value [4] was 12.05 ± 12.32 and the left intraventricular pressure [4] was 134.39 ± 19.12 mmHg. The “left intraventricular pressure, change ratio” value [4] was 4.73 ± 6.55, the mean arterial pressure [4] was 96.51 ± 16.69 mmHg and the “mean arterial pressure, change ratio” value [4] was 8.95 ± 8.95. For the same compound, the “change-rate of left intraventricular pressure MAX” value [5] was 5706.1 ± 1390.6 mmHg/s, the “change-rate of left intraventricular pressure MAX, change ratio” value [5] was 7.6 ± 26.1 and the “change-rate of left intraventricular pressure, -MAX” value [5] was −4156.0 ± 947.7 mm/Hg/s. For the same compound, the “change-rate … -MAX, change ratio” value [5] was −2.2 ± 15.9, the contractive pressure [5] was 131.95 ± 25.10 mmHg and the “contractive pressure, change ratio” value [5] was 2.56 ± 13.11. The diastolic pressure [5] was 74.71 ± 18.13 mmHg, the “diastolic pressure, change ratio” value [5] was 8.47 ± 17.66 and the heart rate [5] was 369.71 ± 35.54 beat/min. The “heart rate, change ratio” value [5] was 13.31 ± 13.05, the left intraventricular pressure [5] was 130.91 ± 17.22 mmHg and the “left intraventricular pressure, change ratio” value [5] was 2.39 ± 9.41. The mean arterial pressure [5] was 93.79 ± 20.11 mmHg, the “mean arterial pressure, change ratio” value [5] was 5.62 ± 15.30 and the “change-rate of left intraventricular pressure MAX” value [6] was 5512.7 ± 1250.1 mmHg/s. The “change-rate of left intraventricular pressure MAX, change ratio” value [6] was 3.6 ± 20.4, the “change-rate of left intraventricular pressure, -MAX” value [6] was −3995.2 ± 837.9 mm/Hg/s and the “change-rate … -MAX, change ratio” value [6] was −5.6 ± 14.3. The contractive pressure [6] was 128.62 ± 28.30 mmHg, the “contractive pressure, change ratio” value [6] was −0.49 ± 12.28 and the diastolic pressure [6] was 72.46 ± 20.46 mmHg. The “diastolic pressure, change ratio” value [6] was 4.39 ± 16.80, the heart rate [6] was 360.36 ± 51.93 beat/min and the “heart rate, change ratio” value [6] was 9.40 ± 6.30. The left intraventricular pressure [6] was 129.15 ± 18.53 mmHg, the “left intraventricular pressure, change ratio” value [6] was 0.79 ± 7.76 and the mean arterial pressure [6] was 91.18 ± 22.76 mmHg. For the same compound, the “mean arterial pressure, change ratio” value [6] was 2.06 ± 14.37, the “change-rate of left intraventricular pressure MAX” value [7] was 5380.2 ± 913.7 mmHg/s and the “change-rate of left intraventricular pressure, -MAX” value [7] was −4246.1 ± 669.3 mm/Hg/s. It also gave a contractive pressure [7] of 129.06 ± 22.13 mmHg, a diastolic pressure [7] of 68.47 ± 11.97 mmHg and a heart rate [7] of 329.43 ± 43.77 beat/min. The left intraventricular pressure [7] was 128.68 ± 20.18 mmHg, the mean arterial pressure [7] was 88.67 ± 14.74 mmHg and the “effect on the heart rate (in words)” value (4.5 mg/kg, 9 mg/kg and 18 mg/kg doses) was “no significant effects”. The “−dp/dt (in words)” value (9 mg/kg and 18 mg/kg, significant at 60 and 120 min) was “exhibited a decrease tendency”, the “change-rate of left intraventricular pressure MAX” value [8] was 5388.9 ± 1187.0 mmHg/s and the “change-rate of left intraventricular pressure MAX, change ratio” value [8] was −0.7 ± 6.7. The “change-rate of left intraventricular pressure, -MAX” value [8] was −3908.5 ± 1013.0 mm/Hg/s, the “change-rate … -MAX, change ratio” value [8] was 0.0 ± 11.2 and the contractive pressure [8] was 131.10 ± 24.38 mmHg. For the same compound, the “contractive pressure, change ratio” value [8] was −1.14 ± 6.68, the diastolic pressure [8] was 68.02 ± 18.77 mmHg and the “diastolic pressure, change ratio” value [8] was −2.47 ± 10.80. The heart rate [8] was 374.04 ± 47.60 beat/min, the “heart rate, change ratio” value [8] was 0.28 ± 7.83 and the left intraventricular pressure [8] was 128.87 ± 25.63 mmHg. For the same compound, the “left intraventricular pressure, change ratio” value [8] was −0.03 ± 8.26, the mean arterial pressure [8] was 89.05 ± 20.26 mmHg and the “mean arterial pressure, change ratio” value [8] was −1.79 ± 8.69. The “change-rate of left intraventricular pressure MAX” value [9] was 5321.6 ± 1133.0 mmHg/s, the “change-rate of left intraventricular pressure MAX, change ratio” value [9] was −1.6 ± 7.4 and the “change-rate of left intraventricular pressure, -MAX” value [9] was −3792.8 ± 979.5 mm/Hg/s. For the same compound, the “change-rate … -MAX, change ratio” value [9] was −2.9 ± 10.2, the contractive pressure [9] was 127.85 ± 23.92 mmHg and the “contractive pressure, change ratio” value [9] was −3.57 ± 7.14. For the same compound, the diastolic pressure [9] was 66.18 ± 19.00 mmHg, the “diastolic pressure, change ratio” value [9] was −5.33 ± 9.64 and the heart rate [9] was 374.93 ± 47.51 beat/min. For the same compound, the “heart rate, change ratio” value [9] was 0.48 ± 7.36, the left intraventricular pressure [9] was 127.06 ± 25.57 mmHg and the “left intraventricular pressure, change ratio” value [9] was −1.37 ± 9.10. The mean arterial pressure [9] was 86.74 ± 20.25 mmHg, the “mean arterial pressure, change ratio” value [9] was −4.42 ± 8.30 and the “change-rate of left intraventricular pressure MAX” value [10] was 5179.1 ± 1270.9 mmHg/s. For the same compound, the “change-rate of left intraventricular pressure MAX, change ratio” value [10] was −5.0 ± 7.8, the “change-rate of left intraventricular pressure, -MAX” value [10] was −3696.8 ± 997.3 mm/Hg/s and the “change-rate … -MAX, change ratio” value [10] was −5.5 ± 10.8. The contractive pressure [10] was 122.58 ± 23.46 mmHg, the “contractive pressure, change ratio” value [10] was −7.38 ± 8.66 and the diastolic pressure [10] was 62.90 ± 17.46 mmHg. For the same compound, the “diastolic pressure, change ratio” value [10] was −9.50 ± 10.75, the heart rate [10] was 361.94 ± 43.56 beat/min and the “heart rate, change ratio” value [10] was −3.00 ± 5.83. The left intraventricular pressure [10] was 123.59 ± 25.06 mmHg, the “left intraventricular pressure, change ratio” value [10] was −4.07 ± 8.57 and the mean arterial pressure [10] was 82.79 ± 18.98 mmHg. The “mean arterial pressure, change ratio” value [10] was −8.42 ± 9.56, the “change-rate of left intraventricular pressure MAX” value [11] was 4966.9 ± 1297.4 mmHg/s and the “change-rate of left intraventricular pressure MAX, change ratio” value [11] was −9.2 ± 10.0. For the same compound, the “change-rate of left intraventricular pressure, -MAX” value [11] was −3569.5 ± 857.8 mm/Hg/s, the “change-rate … -MAX, change ratio” value [11] was −8.3 ± 10.2 and the contractive pressure [11] was 115.46 ± 23.90 mmHg.
